The values below come from patent publication EP4692107A1, “PEPTIDE HAVING SKIN CONDITION IMPROVEMENT ACTIVITY AND USE THEREOF” (Caregen Co., Ltd., priority 2023, dated 2026).

Common to all, as to type: cell-based
In one assay the test system is human dermal fibroblasts. As to the kind of experiment: Fibroblast proliferation effect (SRB staining, absorbance at 560 nm). The following applies: peptide at 10 µM, 50 µM or 100 µM, 72 hours, 37 °C, concentration-dependent, maximum increase (FIG. 1). On the procedure: To confirm the effect of a peptide consisting of the amino acid sequence of SEQ ID NO: 1 on promoting the proliferation of Fibroblasts. Specifically, human dermal fibroblasts were seeded in a 96-well plate at a density of 5x10^3 cells/well and cultured for 24 hours. After replacing with serum-free mesenchymal stem cell medium, the cells were cultured for 24 hours. The above peptide was treated at concentrations of 10 µM, 50 µM, or 100 µM, respectively, and incubated at 37 °C for 72 hours. As a positive control group, 50 nM of human recombinant FGF protein was treated. After completion of culturing, the culture supernatant was removed and the cells were fixed using ethanol. After washing with PBS, staining was performed by treating with SRB solution. After washing with 1 % acetic acid, cells were observed under a microscope and destained by treating with 20 mM tris solution. Cell viability was measured by measuring absorbance at a wavelength of 560 nm using a spectrophotometer (SpectraMax iD3, Molecular Devices (USA, CA)).
The results are illustrated in FIG. 1. From the results of FIG. 1, it may be confirmed that proliferation was induced in a concentration-dependent manner in the peptide treatment group, increasing by up to 1.62 times.

The next assay concerns collagen type 1. As to the kind of experiment: Extracellular matrix expression by immunofluorescence (confocal, Image J): collagen type 1. The following applies: human dermal fibroblasts; peptide at 10 µM, 50 µM or 100 µM, 48 hours; green fluorescence intensity; maximum increase (FIG. 2). On the procedure:
(§1) To confirm the effect of a peptide consisting of the amino acid sequence of SEQ ID NO: 1 on increasing the expression of the dermal extracellular matrix. Specifically, human dermal fibroblasts were seeded in a 6-well plate at a density of 3x10^5 cells/well and cultured for 24 hours. After replacing with serum-free mesenchymal stem cell medium, the cells were cultured for 24 hours. A peptide was treated at concentrations of 10 µM, 50 µM, or 100 µM, respectively, and incubated at 37 °C for 48 hours. Human recombinant FGF protein was treated at 100 nM. After the culture was completed, the culture supernatant was removed and fixed with 4 % paraformaldehyde for 30 minutes. After washing with PBS, the cells were reacted with 0.5 % Triton X-100 for 15 minutes. After reacting with 3 % BSA for 1 hour, primary antibodies against collagen type 1, fibronectin, and elastin were diluted 1:100 and reacted overnight at 4 °C. Secondary antibody-FITC was diluted 1:500 and reacted at room temperature for 2 hours, followed by DAPI staining and mounting. The expression images of each marker were observed using a confocal microscope (Leica, Germany). Green fluorescence intensity was measured using Image J.
(§2) The results are illustrated in FIG. 2. […]

A further assay concerns fibronectin. As to the kind of experiment: Extracellular matrix expression by immunofluorescence (confocal, Image J): fibronectin. The conditions noted are these: human dermal fibroblasts; peptide at 10 µM, 50 µM or 100 µM, 48 hours; green fluorescence intensity; maximum increase (FIG. 2). On the procedure:
as §1, §2

The next assay concerns elastin. As to the kind of experiment: Extracellular matrix expression by immunofluorescence (confocal, Image J): elastin. The following applies: human dermal fibroblasts; peptide at 10 µM, 50 µM or 100 µM, 48 hours; green fluorescence intensity; maximum increase (FIG. 2). On the procedure: as §1, §2

In the case of AERRREKCRC [peptide], the proliferation increase result with human dermal fibroblasts was “up to 1.62 times”. The “collagen type 1 expression increase compared to the control group” value in the assay on collagen type 1 was “up to 1.32 times”. The “fibronectin expression increase compared to the control group” value with fibronectin is recorded as “up to 1.38 times”. For the same sequence, the “elastin expression increase compared to the control group” value in the assay with elastin was “up to 2 times”.
